Reference: PubChem BioAssay AID1996
Values after ≈ are worked out from the molar mass of the structure shown.

Conditions: buffer; pH 7.4; 200.0 µM

Compound	solubility kinetic
CCN(CC)S(=O)(=O)c1ccc(C(=O)NC2=NCCS2)cc1	2.3 µg/mL (≈ 6.74 µM)
CNC(=O)c1ccccc1Sc1cccc2cccc(C(=O)O)c12	> 50.6 µg/mL
COC(=O)c1c(C(=O)OC)c2n(c1C)CCS2	> 38.3 µg/mL
COC(=O)c1ccncc1C(=O)Nc1ccc(OC)cc1	39.4 µg/mL (≈ 138 µM)
O=C(NC1CC1)c1ccc(NS(=O)(=O)c2ccccc2)cc1	> 47.5 µg/mL
CCCc1c(C)nc(SCC(=O)C(C)(C)C)nc1OC(=O)N(C)C	46.8 µg/mL (≈ 132 µM)
O=S1(=O)CCC(NS(=O)(=O)c2ccc3ccccc3c2)C1 (stereo not drawn)	> 48.8 µg/mL
COc1ccccc1CNC(=O)CS(=O)(=O)Cc1ccccc1	41.4 µg/mL (≈ 124 µM)
CCc1cc2ccc(C)cc2nc1SCC(=O)NC1CCCC1	1.2 µg/mL (≈ 3.65 µM)
N#Cc1c(-c2ccco2)ccn(Cc2ccc(F)cc2)c1=O	9 µg/mL (≈ 30.6 µM)
CCC1CCCCN1Cc1ccc(N)cc1 (stereo not drawn)	> 32.8 µg/mL
Cc1cccc(Nc2nc(C)cc(C)n2)c1.Cl	20.1 µg/mL
CC1=NCCN1S(=O)(=O)c1c(C(C)C)cc(C(C)C)cc1C(C)C	16.8 µg/mL (≈ 47.9 µM)
O=C(CCCc1nc(-c2ccccc2Cl)no1)N1CCOCC1	> 50.4 µg/mL
CCN(Cc1ccccc1)C(=O)COC(=O)c1cc(S(=O)(=O)Nc2ccccc2OC)ccc1O	6 µg/mL (≈ 12 µM)
COC(=O)c1ccc(NC(=O)C[n+]2ccccc2C)cc1.[Cl-]	> 48.1 µg/mL
O=C(COC(=O)c1ccc(Br)c(S(=O)(=O)N2CCOCC2)c1)NC1CC1	> 67.1 µg/mL
CCOc1ccc(NC(=O)Nc2ccccc2SC)cc1	1.4 µg/mL (≈ 4.63 µM)
Cc1csc(=O)n1CC(=O)Nc1nc2ccccc2s1	> 45.8 µg/mL
Cc1ccccc1N=C1NC(=O)/C(=C/c2cccnc2)S1	38.1 µg/mL (≈ 129 µM)

Compound	solubility kinetic
COc1ccc(Br)cc1C(=O)Nc1ccccc1N1CCCC1	< 0.4 µg/mL
N#C/C(=C\c1ccccc1Cl)C(=O)Nc1ccccn1	37.7 µg/mL (≈ 133 µM)
O=C(Nc1ccc2oc(=O)ccc2c1)c1ccc(-c2cccc([N+](=O)[O-])c2)o1	3.5 µg/mL (≈ 9.3 µM)
CN(CC(=O)O)S(=O)(=O)c1ccc2oc3ccccc3c2c1	40.1 µg/mL (≈ 126 µM)
CC(=O)c1c(C)[nH]c(C(=O)Nc2ccc(C)cc2Br)c1C	0.8 µg/mL (≈ 2.29 µM)
CC(=O)c1c(C)nc(Nc2nc(C)c3cc(C)ccc3n2)nc1C	> 48.2 µg/mL
Cc1ccc(S(=O)(=O)NC2CC(C)(C)NC(C)(C)C2)cc1C	> 48.7 µg/mL
CCOc1ccc(N=C2SCC(=O)N2CC)cc1	33.6 µg/mL (≈ 127 µM)
CN(C)S(=O)(=O)c1ccc(C(=O)Nc2ccc3nc(N4CCOCC4)sc3c2)cc1	4.1 µg/mL (≈ 9.18 µM)
CCN(CC)C(=O)c1ccc(NC(=O)c2ccc3c(c2)NC(=O)CS3)cc1	6.2 µg/mL (≈ 16.2 µM)
CC(=O)c1cc2c(cc1NC(=O)CN(C)S(=O)(=O)c1cccs1)OCO2	6.4 µg/mL (≈ 16.1 µM)
COc1ccc(Cl)cc1S(=O)(=O)Nc1ccc(Cl)cn1	1.3 µg/mL (≈ 3.9 µM)
O=C(Nc1ccc(Cl)cn1)c1ccc2[nH]c(=O)c(=O)[nH]c2c1	11.7 µg/mL (≈ 36.9 µM)
O=C(NCCCN1CCOCC1)c1cn(-c2ccccc2)nc1-c1ccc(F)cc1	> 61.3 µg/mL
O=C(COC(=O)C1=COCCO1)Nc1cc(C(F)(F)F)ccc1Cl	12.4 µg/mL (≈ 33.9 µM)
O=C(NCC1CCCO1)c1ccc(F)c2ccccc12 (stereo not drawn)	> 41 µg/mL
CCC(CC)C(=O)c1c[nH]c(C(=O)NCc2ccccc2)c1	2.2 µg/mL (≈ 7.37 µM)
CC(C1CC1)N(Cc1ccccc1)C(=O)NC(=O)c1ccccc1 (stereo not drawn)	46.1 µg/mL (≈ 143 µM)
NC(=O)c1ccc(NC(=O)CCN2C(=O)c3ccccc3C2=O)cc1	10.6 µg/mL (≈ 31.4 µM)
Cc1ccc(N=C2NC(=O)/C(=C/c3cccn3C)S2)cc1C	0.9 µg/mL (≈ 2.89 µM)

Compound	solubility kinetic
CCC(=O)N1CCN(c2ccccc2NC(=O)c2ccc([N+](=O)[O-])o2)CC1	32.4 µg/mL (≈ 87 µM)
CCCCCCCc1c(C#N)c(N)[nH]c(=S)c1C#N	31.5 µg/mL (≈ 115 µM)
N#Cc1c(-c2ccc(Cl)cc2)c2c([nH]c1=O)-c1ccccc1OC2	7.6 µg/mL (≈ 22.7 µM)
CC(Sc1nncs1)C(=O)NC1CCCCC1C (stereo not drawn)	> 42.8 µg/mL
Cc1ccc2c(c1)C1C[N+](C)(CC(=O)c3ccc(Cl)cc3Cl)CCC1N2C(=O)c1ccc(F)cc1.[Cl-] (stereo not drawn)	> 82.2 µg/mL
O=C(NC(=S)Nc1ccccc1F)C1CCCCC1	3 µg/mL (≈ 10.7 µM)
O=C1ON=C(c2ccccc2)/C1=C\c1ccco1	35.2 µg/mL (≈ 147 µM)
COc1ccccc1C(=O)NNC(=O)C(=O)NC(C)C	> 41.9 µg/mL
O=C1CN=C(c2ccccc2)c2ccccc2N1	27.2 µg/mL (≈ 115 µM)
Cc1cccc(C(=O)O/N=C/c2ccc(Br)cc2)c1	< 0.7 µg/mL
CC(O)CNCCCOc1cccc(C(F)(F)F)c1.O=C(O)C(=O)O (stereo not drawn)	51.7 µg/mL
CCCn1c(=O)c2c(nc3n2CCN3Cc2ccco2)n(C)c1=O	> 49.4 µg/mL
COC(=O)c1c(NC(C)=O)sc(C(=O)N2CCOCC2)c1C	> 49 µg/mL
Cc1ccc(C)c(C(=O)COC(=O)CN2C(=O)C3C4CCC(C4)C3C2=O)c1 (stereo not drawn)	> 55.4 µg/mL
COc1cccc(CC(=O)Nc2nc3c(s2)C(=O)CC(C)(C)C3)c1	1.8 µg/mL (≈ 5.23 µM)
O=C(CN1CCCCCC1)Nc1ccc([N+](=O)[O-])cc1Br	3 µg/mL (≈ 8.42 µM)
CNc1ccccc1NC(=O)CCn1c(=S)oc2ccccc21	5.6 µg/mL (≈ 17.1 µM)
CCNc1nc(NC(C)C)nc(N(C#N)CC(=O)OC)n1	> 44 µg/mL
